Laboratory results: paper PMC4575222 (ChemMedChem, 2011)

Key:
[1] = Metabolic stability in mouse liver microsomes; assay type: in vitro ADME; conditions: for Qp,h (percentage ratio of predicted clearance over plasma flow): well-stirred model; for half-life: mouse, liver microsomes
Vero cells = assay: Cytotoxicity against Vero cells; assay type: cell-based

In the case of Cc1c(Cc2ccc(Cl)cc2)c(=O)n2c([nH]c3ccccc32)c1C#N [3a, 2-(4-Chlorobenzyl)-3-methyl-1-oxo-1H,5H-pyrido[1,2-a]benzimidazole-4-carbonitrile], the “Qp,h (percentage ratio of predicted clearance over plasma flow)” value ([1]; mouse liver microsomes) is reported as 95.4%, the half-life [1] is reported as 6.5 min and the “selectivity index (SI)” value (Vero cells; IC50 Vero cells over MICMABA, repeat testing) is reported as 16. For the same compound, the “toxicity toward Vero cells from the HTS studies” value (Vero cells; initial HTS study, before repeat testing) was > 100 µm.

With Cc1c(Cc2cccc(C(F)(F)F)c2)c(=O)n2c([nH]c3ccccc32)c1C#N [3d, 3-Methyl-1-oxo-2-[3-(trifluoromethyl)benzyl]-1H,5H-pyrido[1,2-a]-benzimidazole-4-carbonitrile] the “Qp,h (percentage ratio of predicted clearance over plasma flow)” value ([1]; mouse liver microsomes) was 90.0% and the half-life [1] was 15 min.

In the case of COc1cccc(Cc2c(C)c(C#N)c3[nH]c4ccccc4n3c2=O)c1 [3e, 3-Methyl-2-(3-methoxybenzyl)-1-oxo-1H,5H-pyrido[1,2-a]benzimidazole-4-carbonitrile], the “Qp,h (percentage ratio of predicted clearance over plasma flow)” value ([1]; mouse liver microsomes) is reported as 93.5% and the half-life [1] is reported as 9.43 min.

With Cc1c(Cc2ccccc2)c(=O)n2c([nH]c3ccccc32)c1C#N [3v, 2-Benzyl-3-methyl-1-oxo-1H,5H-pyrido[1,2-a]benzimidazole-4-carbonitrile] the “Qp,h (percentage ratio of predicted clearance over plasma flow)” value ([1]; mouse liver microsomes) was 94.5% and the half-life [1] was 7.82 min.

With Cc1c(C)c(=O)n2c([nH]c3ccccc32)c1C#N [3w, 2,3-Dimethyl-1-oxo-1H,5H-pyrido[1,2-a]benzimidazole-4-carbonitrile] the Half life ([1]; mouse liver microsomes, 30 min incubation) was “most stable member of the set of compounds tested”, the “Qp,h (percentage ratio of predicted clearance over plasma flow)” value ([1]; mouse liver microsomes) was 72.5% and the half-life [1] was 51.2 min.
